Test results published in US11702426B2, “Macrocyclic deaza-purinones for the treatment of viral infections” (JANSSEN SCIENCES IRELAND UNLIMITED COMPANY, priority 2013, dated 2023).
Like-named read-outs stand apart in the source and are kept apart here.

Columns and labels:
[1] = target: T1, human TLR7 (Homo sapiens, UniProt Q9NYK1); experiment: HEK293 TLR7-NFκB-luc cellular reporter assay; format: cell-based; details: lowest effective concentration; HEK293 transiently transfected with TLR7 and NFκB-luc; 6 hours incubation
T1 construct: expressed in transfected cells; host or cells: HEK293
T1 sequence (Q9NYK1 27-1049): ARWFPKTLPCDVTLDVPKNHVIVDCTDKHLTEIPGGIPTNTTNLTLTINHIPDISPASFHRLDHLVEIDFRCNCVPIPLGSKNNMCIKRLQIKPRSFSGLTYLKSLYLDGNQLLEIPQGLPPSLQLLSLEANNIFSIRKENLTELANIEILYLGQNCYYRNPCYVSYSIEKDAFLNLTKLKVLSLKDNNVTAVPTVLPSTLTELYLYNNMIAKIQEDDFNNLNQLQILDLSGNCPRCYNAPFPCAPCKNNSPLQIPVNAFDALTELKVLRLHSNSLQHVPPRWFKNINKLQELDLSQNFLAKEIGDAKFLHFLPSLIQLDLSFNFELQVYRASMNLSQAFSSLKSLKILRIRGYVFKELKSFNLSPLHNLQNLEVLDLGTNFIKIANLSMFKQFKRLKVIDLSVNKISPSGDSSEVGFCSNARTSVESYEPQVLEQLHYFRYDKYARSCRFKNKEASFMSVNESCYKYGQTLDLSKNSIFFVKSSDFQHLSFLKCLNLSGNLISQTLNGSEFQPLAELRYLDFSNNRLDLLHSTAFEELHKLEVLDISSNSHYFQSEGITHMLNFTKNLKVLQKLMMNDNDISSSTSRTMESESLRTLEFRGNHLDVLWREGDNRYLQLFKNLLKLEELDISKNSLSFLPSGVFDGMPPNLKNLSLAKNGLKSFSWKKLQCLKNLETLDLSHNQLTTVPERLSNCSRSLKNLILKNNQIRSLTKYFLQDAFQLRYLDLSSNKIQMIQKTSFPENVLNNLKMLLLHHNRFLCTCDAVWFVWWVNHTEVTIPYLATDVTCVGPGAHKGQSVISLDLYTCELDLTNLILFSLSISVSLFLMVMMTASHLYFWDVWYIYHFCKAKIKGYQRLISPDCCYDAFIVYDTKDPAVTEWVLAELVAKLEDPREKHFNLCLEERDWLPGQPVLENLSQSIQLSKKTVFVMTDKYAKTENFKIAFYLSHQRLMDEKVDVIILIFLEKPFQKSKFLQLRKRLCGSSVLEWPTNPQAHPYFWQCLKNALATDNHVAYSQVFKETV
Description: The ability of compounds to activate human TLR7 and TLR8 was assessed in a cellular reporter assay using HEK293 cells transiently transfected with a TLR7 or TLR8 expression vector and NFκB-luc reporter construct. Briefly, HEK293 cells were grown in culture medium (DMEM supplemented with 10% FCS and 2 mM Glutamine). For transfection of cells in 15 cm dishes, cells were detached with Trypsin-EDTA, transfected with a mix of CMV-TLR7 or TLR8 plasmid (1,700 ng), NFκB-luc plasmid (850 ng) and a transfection reagent and incubated 48 hours at 37° C. in a humidified 5% CO2 atmosphere. Transfected cells were then washed in PBS, detached with Trypsin-EDTA, and resuspended in medium to a density of 1.25×10^5 cells/mL. Forty microliters of cells were then dispensed into each well in 384-well plates, where 200 nL of compound in 100% DMSO was already present. Following 6 hours incubation at 37° C., 5% CO2, the luciferase activity was determined by adding 15 μl of Steady Lite Plus substrate (Perkin Elmer) to each well and readout performed on a ViewLux ultraHTS microplate imager (Perkin Elmer). Dose response curves were generated from measurements performed in quadruplicates. Lowest effective concentrations (LEC) values, defined as the concentration that induces an effect which is at least two fold above the standard deviation of the assay, were determined for each compound.

[2] = tested on: interferon production in human PBMC; experiment: Interferon production in human PBMC, read out on HEK-ISRE-luc reporter cells; format: cell-based; details: lowest effective concentration, PBMC incubated overnight with compound, supernatant transferred to HEK-ISRE-luc cells; for minimal effective concentration: Homo sapiens, PBMC, 24 h, read-out: PBMC HEK-ISRE-luc (LEC; μM); for PBMC HEK-ISRE-luc (LEC; μM): 24 hours
Description: Activation of human TLR7 results in robust production of interferon by plasmacytoid dendritic cells present in human blood. The potential of compounds to induce interferon was evaluated by determination of interferon in the conditioned media from peripheral blood mononuclear cells (PBMC). The presence of interferon in the samples was determined, using an interferon reporter cell line stably expressing an interferon-stimulated responsive elements (ISRE)-luc reporter construct. The ISRE element with sequence TAGTTTCACTTTCCC (SEQ ID NO: 1) is highly responsive to the STAT1-STAT2-IRF9 transcription factor, which becomes activated upon binding of IFN-I to the IFN receptor. Briefly, PBMCs were prepared from buffy coats of at least two donors using a standard Ficoll centrifugation protocol. Isolated PBMCs were resuspended in RPMI medium supplemented with 10% human AB serum and 2×10^5 cells/well were dispensed into 384-well plates containing compounds (70 μL total volume). After overnight incubation of the PBMCs with the compounds, 10 μL of supernatant was transferred to 384-well plates containing 5×10^3 HEK-ISRE-luc cells/well in 30 μL (plated the day before). Following 24 hours of incubation, activation of the ISRE elements was measured by assaying luciferase activity using 40 μL/well Steady Lite Plus substrate (Perkin Elmer) and measured with ViewLux ultraHTS microplate imager (Perkin Elmer). The stimulating activity of each compound on the HEK-ISRE-luc cells was reported as LEC. The LEC in turn indicates the degree of ISRE activation on transfer of a defined amount of PBMC culture medium. Recombinant interferon alfa-2a (Roferon-A) was used as a standard control compound.

[3] = rcm bond, 16.0 h

| SMILES | HEK293 TLR7-NFκB-luc (LEC; μM) [1] [µM] | minimal effective concentration [2] [µM] | ring closure, yield of all isomers ([3]; from C=CCCOc1cc(N(Cc2cc(OC)cc(OCC=C)c2)C(=O)OCC)c([N+](=O)[O-])c(N)n1, Grubbs 2nd generation, CH2Cl2, 5.3 mM, 25.0 °C) [%] | PBMC HEK-ISRE-luc (LEC; μM) [2] [µM] | ring closure, yield of all isomers ([3]; from C=CCOc1cc(N(Cc2cccc(N(CC=C)C(=O)OC(C)(C)C)c2)C(=O)OCC)c([N+](=O)[O-])c(N)n1, Grubbs-Hoveyda catalyst 2nd generation (with chlorodicyclohexylborane), 1,2-dichloroethane, 4.1 mM, 120.0 °C) [%] |
| --- | --- | --- | --- | --- | --- |
| COc1cc2cc(c1)OC/C=C/CCOc1cc3c(nc(O)n3C2)c(N)n1 [Compound 15] | 0.18 | 0.04 | – | – | – |
| Nc1nc2cc3c1nc(O)n3Cc1cccc(c1)OC/C=C/CCCO2 [Compound 11] | 1.25 | 0.45 | – | – | – |
| CCOC(=O)N1Cc2cc(OC)cc(c2)OCC=CCCOc2cc1c([N+](=O)[O-])c(N)n2 | – | – | 41 | – | – |
| Cl.Nc1nc2cc3c1nc(O)n3Cc1ccc(F)c(c1)OC/C=C/CO2 [Compound 17] | 1.88 | – | – | 0.39 | – |
| Nc1nc2cc3c1nc(O)n3CCc1cccc(c1)OC/C=C/CO2 [Compound 35] | 17.43 | 1.98 | – | – | – |
| Nc1nc2cc3c1nc(O)n3Cc1cccc(c1)OCCCCCO2 [Compound 14] | 7.01 | 2.4 | – | – | – |
| Cl.Nc1nc2cc3c1nc(O)n3Cc1cc(F)cc(c1)OC/C=C/CO2 [Compound 31] | 1.19 | – | – | 0.15 | – |
| Nc1nc2cc3c1nc(O)n3Cc1cc(F)cc(c1)OC/C=C/CCO2 [Compound 27] | 1.35 | 0.14 | – | – | – |
| Nc1nc2cc3c1nc(O)n3Cc1cccc(c1)OC/C=C/CO2 [Compound 1] | 2.88 | 0.3 | – | – | – |
| Nc1nc2cc3c1nc(O)n3Cc1cccc(c1)OCC/C=C/CO2 [Compound 25] | 1.92 | 0.53 | – | – | – |
| Nc1nc2cc3c1nc(O)n3Cc1cccc(c1)OC/C=C/CCO2 [Compound 10] | 0.78 | 0.25 | – | – | – |
| COc1ccc2cc1OC/C=C/COc1cc3c(nc(O)n3C2)c(N)n1 [Compound 7] | 3.88 | 0.29 | – | – | – |
| CCOC(=O)N1Cc2cccc(c2)N(C(=O)OC(C)(C)C)CC=CCOc2cc1c([N+](=O)[O-])c(N)n2 | – | – | – | – | 40 |
| Nc1nc2cc3c1nc(O)n3Cc1cccc(c1)NCCCCO2 [Compound 23] | 16.74 | 8.98 | – | – | – |
| Nc1nc2cc3c1nc(O)n3Cc1cccc(c1)C/C=C/CCO2 [Compound 3] | 0.27 | 0.033 | – | – | – |
| Nc1nc2cc3c1nc(O)n3Cc1ccc(F)c(c1)OCCCCO2 [Compound 24] | – | 2.14 | – | – | – |
| Nc1nc2cc3c1nc(O)n3Cc1ccc(F)c(c1)OCCCCCO2 [Compound 19] | 14.96 | 2.22 | – | – | – |
| Nc1nc2cc3c1nc(O)n3Cc1cc(F)cc(c1)OC/C=C/CO2 [Compound 30] | 0.64 | 0.15 | – | – | – |
| Nc1nc2cc3c1nc(O)n3Cc1cccc(c1)OCCCCO2 [Compound 2] | 4.47 | 0.93 | – | – | – |

| SMILES | HEK293 TLR7-NFκB-luc (LEC; μM) [1] [µM] | minimal effective concentration [2] [µM] | ring closure, yield of all isomers ([3]; from C=CCCOc1cc(N(Cc2cc(OC)cc(OCC=C)c2)C(=O)OCC)c([N+](=O)[O-])c(N)n1, Grubbs 2nd generation, CH2Cl2, 5.3 mM, 25.0 °C) [%] | PBMC HEK-ISRE-luc (LEC; μM) [2] [µM] | ring closure, yield of all isomers ([3]; from C=CCOc1cc(N(Cc2cccc(N(CC=C)C(=O)OC(C)(C)C)c2)C(=O)OCC)c([N+](=O)[O-])c(N)n1, Grubbs-Hoveyda catalyst 2nd generation (with chlorodicyclohexylborane), 1,2-dichloroethane, 4.1 mM, 120.0 °C) [%] |
| --- | --- | --- | --- | --- | --- |
| Nc1nc2cc3c1nc(O)n3Cc1cccc(c1)NCCCCCO2 [Compound 34] | 8.1 | 2.11 | – | – | – |
| Nc1nc2cc3c1nc(O)n3Cc1cccc(c1)NC/C=C\CCO2 [Compound 29] | 1.14 | 0.48 | – | – | – |
| Cl.Nc1nc2cc3c1nc(O)n3Cc1ccc(F)c(c1)OCCCCCO2 [Compound 20] | 4.99 | – | – | 1.61 | – |
| Nc1nc2cc3c1nc(O)n3Cc1cc(F)cc(c1)OCCCCCO2 [Compound 32] | 2.92 | 0.49 | – | – | – |
| Cl.Nc1nc2cc3c1nc(O)n3Cc1cc(F)cc(c1)OC/C=C/CCO2 [Compound 28] | 0.91 | – | – | 0.15 | – |
| COc1ccc2cc1OCCCCOc1cc3c(nc(O)n3C2)c(N)n1 [Compound 8] | 7.1 | 0.58 | – | – | – |
| Nc1nc2cc3c1nc(O)n3Cc1cccc(c1)CCCCCN2 [Compound 9] | 11.09 | 10.9 | – | – | – |
| Nc1nc2cc3c1nc(O)n3Cc1cccc(c1)NC/C=C/CO2 [Compound 18] | 8.02 | 1.11 | – | – | – |
| Nc1nc2cc3c1nc(O)n3Cc1cc(F)cc(c1)OCCCCO2 [Compound 33] | 2.77 | 0.45 | – | – | – |
| COc1cc2cc(c1)OCCCCOc1cc3c(nc(O)n3C2)c(N)n1 [Compound 13] | 1.71 | 0.15 | – | – | – |
| Nc1nc2cc3c1nc(O)n3Cc1ncccc1OC/C=C/CCO2 [Compound 5] | 2.14 | 0.082 | – | – | – |
| Nc1nc2cc3c1nc(O)n3Cc1ccc(F)c(c1)OC/C=C/CO2 [Compound 16] | 2.02 | 0.47 | – | – | – |
| Nc1nc2cc3c1nc(O)n3Cc1cccc(c1)NC/C=C/CCO2 [Compound 26] | 1.88 | 0.37 | – | – | – |
| Nc1nc2cc3c1nc(O)n3Cc1ncccc1OCCCCCO2 [Compound 6] | 1 | 0.16 | – | – | – |
| COc1ccc2cc1OC/C=C/COc1cc3c(nc(O)n3CC2)c(N)n1 [Compound 36] | 13.75 | 1.63 | – | – | – |
| Nc1nc2cc3c1nc(O)n3Cc1ccc(F)c(c1)OC/C=C/CCO2 [Compound 21] | 0.9 | 0.25 | – | – | – |
| COc1cc2cc(c1)OC/C=C/COc1cc3c(nc(O)n3C2)c(N)n1 [Compound 12] | 1.08 | 0.3 | – | – | – |
| Cl.Nc1nc2cc3c1nc(O)n3Cc1ccc(F)c(c1)OC/C=C/CCO2 [Compound 22] | 1.83 | – | – | 0.39 | – |
